Laboratory results: US12084458B2, “Substituted pyridines, pyridazines, and pyrimidines as TYK2 inhibitors” (Sudo Biosciences Limited, priority 2021, dated 2024)

Key:
Format in all cases: cell-based
[1] = tested on: HEK-Blue IL-2 reporter cells (IL-2-stimulated STAT5 SEAP reporter); assay: HEK-Blue IL-2 SEAP reporter assay for determining selectivity; conditions: 4 ng/mL human recombinant IL-2
Method: (§1) Example B-3: HEK-Blue™ IL-2 and IFNγ Reporter Assays for Determining Selectivity
(§2) HEK-Blue™ IL-2 and IFNγ reporter cells with a stably-integrated cytokine receptor and STAT5 or STAT1 express STAT-inducible secreted embryonic alkaline phosphatase (SEAP) reporter gene upon cytokine stimulation. These cells were plated in DMEM (Gibco) containing 10% heat-inactivated FBS (Gibco) and 100 U/mL PenStrep (Gibco) at 37° C. under 5% CO2 conditions for 20-22 hours. The cells were then pretreated with serially diluted test compounds for 60 min prior to stimulation with either 4 ng/mL human recombinant IL-2 (Miltenyl Biotech) or 50 ng/mL human recombinant IFNγ (InvivoGen) for 24 hours. SEAP induction was measured using the QUANTI-Blue™ Solution (InvivoGen) according to the manufacturer's instructions.

[2] = tested on: HEK-Blue IL-23 cells (IL-23-stimulated STAT3 SEAP reporter; TYK2 JH2); assay: HEK-Blue IL-23 SEAP reporter assay for profiling TYK2 pseudokinase (JH2) inhibition; conditions: 10 ng/mL human recombinant IL-23, SEAP reporter, read-out: IL23 (TYK2 inhibitory activity, IC50)
Method: (§3) Example B-1: HEK-Blue™ IL-23 and IFNα/β Reporter Assays for Profiling TYK2 Pseudokinase (JH2) Inhibition
(§4) HEK-Blue™ IL-23 and IFNα/β cells with a stably-integrated cytokine receptor and STAT3 or STAT1 express STAT-inducible secreted embryonic alkaline phosphatase (SEAP) reporter gene upon cytokine stimulation. These cells are plated in DMEM (Gibco) containing 10% heat-inactivated FBS (Gibco) and 100 U/mL PenStrep (Gibco) at 37° C. under 5% CO2 conditions for 20-22 hours. The cells are then pretreated with serially diluted test compounds for 60 min prior to stimulation with either 10 ng/mL human recombinant IL-23 (Miltenyl Biotech) or 1 ng/mL human recombinant IFNα (InvivoGen) for 22-24 hours for IL-23 or 16-18 h for IFNα. SEAP induction is measured using the QUANTI Blue™ Solution (InvivoGen) according to the manufacturer's instructions.

[3] = tested on: HEK-Blue IFNγ reporter cells (IFNγ-stimulated STAT1 SEAP reporter); assay: HEK-Blue IFNγ SEAP reporter assay for determining selectivity; conditions: Homo sapiens, HEK-Blue, 50 ng/mL human recombinant IFNγ, read-out: IFN-γ (SEAP selectivity, IC50)
Method: as §1, §2

[4] = tested on: HEK-Blue IFNα/β cells (IFNα-stimulated STAT1 SEAP reporter; TYK2 JH2); assay: HEK-Blue IFNα/β SEAP reporter assay for profiling TYK2 pseudokinase (JH2) inhibition; design: IFNα (TYK2 inhibitory activity, IC50): scale not given here; conditions: 1 ng/mL human recombinant IFNα; for IC50: Homo sapiens, HEK-Blue, read-out: IFNα (TYK2 inhibitory activity, IC50)
Method: as §3, §4

Row | SMILES | IC50 [1] [nM] | IC50 [2] [nM] | IC50 [3] [nM] | IC50 [4] [nM] | IFNα (TYK2 inhibitory activity, IC50) [4]
1 | [2H]C([2H])([2H])NC(=O)c1nnc(NC(=O)C2CC2)cc1Nc1cccc2c1N(C)[C@@H](C)c1nc(C)nn1-2 (single isomer, unassigned) [Compound 22] | > 1000 | < 30 | 300 to 1000 | < 30 | –
2 | [2H]C([2H])([2H])NC(=O)c1cnc(NC(=O)C2CC2)cc1Nc1cccc2c1N(C)[C@@H](C)c1nc(C)nn1-2 (single isomer, unassigned) [Compound 25] | > 1000 | < 30 | > 1000 | < 30 | –
3 | [2H]C([2H])([2H])NC(=O)c1cnc(NC(=O)NC)cc1Nc1cccc2c1N(C)[C@@H](C)c1nn(C)nc1-2 (single isomer, unassigned) [Compound 55] | > 1000 | < 30 | > 1000 | < 30 | –
4 | [2H]C([2H])([2H])NC(=O)c1cnc(NC(=O)NC)cc1Nc1cccc2c1N(C)[C@H](C)c1nn(C)nc1-2 (single isomer, unassigned) [Compound 56] | > 1000 | 30 to 300 | > 1000 | > 1000 | –
5 | [2H]C([2H])([2H])NC(=O)c1cnc(NC(=O)C2CC2)cc1Nc1cccc2c1N(C)[C@@H](C)c1nn(C)nc1-2 (single isomer, unassigned) [Compound 57] | > 1000 | < 30 | > 1000 | < 30 | –
6 | [2H]C([2H])([2H])NC(=O)c1nnc(NC(=O)C2CC2)cc1Nc1cccc2c1N(C)[C@@H](C)c1nn(C)nc1-2 (single isomer, unassigned) [Compound 60] | > 1000 | < 30 | > 1000 | < 30 | –
7 | [2H]C([2H])([2H])NC(=O)c1nnc(NC(=O)NC)cc1Nc1cccc2c1N(C)[C@@H](C)c1nn(C)nc1-2 (single isomer, unassigned) [Compound 62] | > 1000 | < 30 | > 1000 | < 30 | –
8 | [2H]C([2H])([2H])NC(=O)c1nnc(NC(=O)C2CC2)cc1Nc1nccc2c1N(C)[C@@H](C)c1nn(C)nc1-2 (single isomer, unassigned) [Compound 94] | > 1000 | < 30 | 300 to 1000 | < 30 | –
9 | [2H]C([2H])([2H])NC(=O)c1nnc(NC(=O)C2CC2)cc1Nc1nccc2c1N(C)[C@H](C)c1nn(C)nc1-2 (single isomer, unassigned) [Compound 95] | > 1000 | < 30 | > 1000 | 30 to 300 | –
10 | [2H]C([2H])([2H])NC(=O)c1nnc(NC(=O)NC)cc1Nc1nccc2c1N(C)[C@@H](C)c1nn(C)nc1-2 (single isomer, unassigned) [Compound 100] | > 1000 | < 30 | > 1000 | < 30 | –
11 | [2H]C([2H])([2H])NC(=O)c1cnc(Nc2ccc(F)cn2)cc1Nc1cccc2c1N(C)Cc1nc(C)nn1-2 [Compound 27, 4-((2,5-dimethyl-4,5-dihydro-[1,2,4]triazolo[1,5-a]quinoxalin-6-yl)amino)-6-((5-fluoropyridin-2-yl)amino)-N-(methyl-d3)nicotinamide] | > 1000 | < 30 | 300 to 1000 | – | –
12 | [2H]C([2H])([2H])NC(=O)c1cnc(NC(=O)N(C)C)cc1Nc1cccc2c1N(C)Cc1nn(C)nc1-2 [Compound 51, 4-((2,5-dimethyl-4,5-dihydro-2H-[1,2,3]triazolo[4,5-c]quinolin-6-yl)amino)-6-(3,3-dimethylureido)-N-(methyl-d3)nicotinamide] | > 1000 | < 30 | – | – | –
13 | [2H]C([2H])([2H])NC(=O)Nc1cc(Nc2cccc3c2N(C)Cc2nn(C)nc2-3)c(C(=O)NC([2H])([2H])[2H])cn1 [Compound 67, 4-((2,5-dimethyl-4,5-dihydro-2H-[1,2,3]triazolo[4,5-c]quinolin-6-yl)amino)-N-(methyl-d3)-6-(3-(methyl-d3)ureido)nicotinamide] | > 1000 | < 30 | – | < 30 | –
14 | [2H]C([2H])([2H])NC(=O)c1cnc(N(C)C(=O)C2CC2)cc1Nc1cccc2c1N(C)Cc1nc(C)nn1-2 [Compound 82, 4-((2,5-dimethyl-4,5-dihydro-[1,2,4]triazolo[1,5-a]quinoxalin-6-yl)amino)-N-(methyl-d3)-6-(N-methylcyclopropanecarboxamido)nicotinamide] | – | > 1000 | – | > 1000 | –
15 | [2H]C([2H])([2H])NC(=O)c1cnc(NC(=O)C2CC2)cc1Nc1ccnc2c1N(C)Cc1nc(C)nn1-2 [Compound 86, 6-(cyclopropanecarboxamido)-4-((2,5-dimethyl-4,5-dihydropyrido[3,2-e][1,2,4]triazolo[1,5-a]pyrazin-6-yl)amino)-N-(methyl-d3)nicotinamide] | – | 30 to 300 | – | 300 to 1000 | –
16 | [2H]C([2H])([2H])NC(=O)c1nnc(NC(=O)C2CC2)cc1Nc1ccnc2c1N(C)Cc1nc(C)nn1-2 [Compound 87, 6-(cyclopropanecarboxamido)-4-((2,5-dimethyl-4,5-dihydropyrido[3,2-e][1,2,4]triazolo[1,5-a]pyrazin-6-yl)amino)-N-(methyl-d3)pyridazine-3-carboxamide] | – | 30 to 300 | – | 300 to 1000 | –
17 | [2H]C([2H])([2H])NC(=O)c1nnc(NC(=O)C2CC2)cc1Nc1c(F)ccc2c1N(C)Cc1nc(C)nn1-2 [Compound 98, 6-(cyclopropanecarboxamido)-4-((7-fluoro-2,5-dimethyl-4,5-dihydro-[1,2,4]triazolo[1,5-a]quinoxalin-6-yl)amino)-N-(methyl-d3)pyridazine-3-carboxamide] | – | 30 to 300 | – | – | C/D
18 | [2H]C([2H])([2H])NC(=O)c1nnc(NC(=O)NC)cc1Nc1cc(F)cc2c1N(C)Cc1nc(C)nn1-2 [Compound 103, 4-((8-fluoro-2,5-dimethyl-4,5-dihydro-[1,2,4]triazolo[1,5-a]quinoxalin-6-yl)amino)-N-(methyl-d3)-6-(3-methylureido)pyridazine-3-carboxamide] | – | 30 to 300 | – | 30 to 300 | –
19 | [2H]C([2H])([2H])NC(=O)c1nnc(NC(=O)C2CC2)cc1Nc1nccc2c1N(C)[C@@H](C)c1nc(C)nn1-2 [Compound 112, (S)-6-(cyclopropanecarboxamido)-N-(methyl-d3)-4-((2,4,5-trimethyl-4,5-dihydropyrido[3,4-e][1,2,4]triazolo[1,5-a]pyrazin-6-yl)amino)pyridazine-3-carboxamide] | – | < 30 | – | 30 to 300 | –
20 | [2H]C([2H])([2H])NC(=O)c1nnc(NC(=O)C2CC2)cc1Nc1nccc2c1N(C)[C@@H](C([2H])([2H])[2H])c1nn(C)nc1-2 [Compound 113, (S)-6-(cyclopropanecarboxamido)-4-((2,5-dimethyl-4-(methyl-d3)-4,5-dihydro-2H-[1,2,3]triazolo[4,5-c][1,7]naphthyridin-6-yl)amino)-N-(methyl-d3)pyridazine-3-carboxamide] | – | 30 to 300 | – | 30 to 300 | –
21 | [2H]C([2H])([2H])NC(=O)c1nnc(NC(=O)C2CC2)cc1Nc1nccc2c1N(C)[C@H](C([2H])([2H])[2H])c1nn(C)nc1-2 [Compound 114, (R)-6-(cyclopropanecarboxamido)-4-((2,5-dimethyl-4-(methyl-d3)-4,5-dihydro-2H-[1,2,3]triazolo[4,5-c][1,7]naphthyridin-6-yl)amino)-N-(methyl-d3)pyridazine-3-carboxamide] | – | < 30 | – | < 30 | –
22 | [2H]C([2H])([2H])NC(=O)c1nnc(NC(=O)[C@H]2C[C@H]2F)cc1Nc1nccc2c1N(C)Cc1nn(C)nc1-2 [Compound 115, 4-((2,5-dimethyl-4,5-dihydro-2H-[1,2,3]triazolo[4,5-c][1,7]naphthyridin-6-yl)amino)-6-((1R,2R)-2-fluorocyclopropane-1-carboxamido)-N-(methyl-d3)pyridazine-3-carboxamide] | – | < 30 | – | < 30 | –
23 | [2H]C([2H])([2H])NC(=O)c1nnc(NC(=O)[C@@H]2C[C@@H]2F)cc1Nc1nccc2c1N(C)Cc1nn(C)nc1-2 [Compound 116, 4-((2,5-dimethyl-4,5-dihydro-2H-[1,2,3]triazolo[4,5-c][1,7]naphthyridin-6-yl)amino)-6-((1S,2S)-2-fluorocyclopropane-1-carboxamido)-N-(methyl-d3)pyridazine-3-carboxamide] | – | 30 to 300 | – | 300 to 1000 | –
